In patent US20130190370A1, “Novel Tetrahydronaphalene Antagonists to the Thromboxane A2 (TP) Receptor” (The Trustees of the University of Pennsylvania, priority 2010, published 2013):
Like-named read-outs stand apart in the source and are kept apart here.

How the values were obtained:
[1] = Unbound fractions in plasma and brain homogenates by equilibrium dialysis; format: in vitro ADME; conditions: for fraction unbound: equilibrium dialysis
From the text: Without wishing to be bound by any particular theory, it is believed that it is possible (although uncommon) for a BBB-permeable compound to have a very low B/P ratio if the fraction of free, unbound drug is much greater in the […]. More specifically, a drug that is freely diffusible across the BBB will at equilibrium have a free drug B/P ratio (B/Pfree)=1, where B/Pfree=B/P×fu(brain))/fu(plasma) (Maurer, et al., 2005, Drug Metab Dispos. 33:175-181; Kalvasset al., 2007, Drug Metab Dispos. 35:660-666) and fti represents unbound drug fractions. […] To ensure that the low B/P ratios obtained with the TP antagonists of Table 1 were truly reflective of poor BBB permeability, the unbound fractions in plasma and brain homogenates were measured using established equilibrium dialysis methods (Maurer, et al., 2005, Drug Metab Dispos. 33:175-181; Kalvasset al., 2007, Drug Metab Dispos. 35:660-666; Friden, et al., 2007, Drug Metab Dispos. 35:1711-1719). […] This is further illustrated by comparing the calculated B/Pfree ratios (Table 1), which are <<1. Because the existing repertoire of TP receptor antagonists share common structural features, including free carboxylate moieties, it is highly unlikely that any of these existing compounds would be sufficiently brain-penetrant to be potential AD therapeutics.

[2] = S18886 brain and plasma levels after administration to mice in drinking water; format: in vivo
Description: Brain and plasma drug levels of S18886 were measured after administration to mice in drinking water, as previously described (Shineman, et al., 2008, J. Neurosci 28:4785-4794). Mice have 20-30 separate drinking bouts over the course of the day (Gannon, et al., 1992, Physiol Behav. 51:515-521), albeit with much greater water consumption during the night. […] In fact, extended exposure to excessively high blood levels of a TP receptor antagonist could increase the risk of bleeding complications due to compromise of platelet function, as it is known that TP receptor knockout mice and TxA2 synthase-deficient mice have prolonged clotting times (Thomas, et al., 1998, J Clin Invest 102:1994-2001; Yu, et al., 2004, Blood 104:135-142). Furthermore, inactivating mutations in the TP receptor have been linked to a dominantly inherited bleeding disorder in humans (Hirata, et al., 1994, J Clin Invest 94:1662-1667).

Work on `Cc1ccc2c(c1CCC(=O)O)CC[C@@H](NS(=O)(=O)c1ccc(Cl)cc1)C2` [Compound S18886] yielded a fraction unbound ([1]; brain homogenate, read-out: fu(brain) (fraction unbound)) of 0.044, a plasma/brain unbound fraction ratio ([1]; plasma and brain homogenate, ratio of unbound fractions plasma/brain, read-out: fu(pl)/fu(br)) of 0.59 and a fraction unbound ([1]; plasma, read-out: fu(plasma) (fraction unbound)) of 0.026. For the same compound, the “free drug in plasma relative to brain” value ([2]; drinking water dosing) was > 10 ×, the “calculated free drug concentration in brain as % of Kd at mouse TP receptor” value ([2]; drinking water dosing, daylight phase) was ~30% and the concentration at 1 day ([2]; mouse, brain, oral, dosing by drinking water, day 1, daylight phase, read-out: Free S18886 brain level) was 0.093 nM. For the same compound, the concentration at 2 day ([2]; mouse, brain, oral, dosing by drinking water, day 2, daylight phase, read-out: Free S18886 brain level) was 0.117 nM.
